Measurements taken from patent US9790496B2, “Microrna compounds and methods for modulating MIR-21 activity” (Regulus Therapeutics, Inc., priority 2011, dated 2017).
Where “and” joins values, the source holds several entries; their conditions need not be identical. Equal values may be shown once. Entries after “also recorded” stand apart in the source; their conditions may differ.

Assays:
[1] = system: collagen 1A1 and collagen 3A1 expression in kidney, unilateral ureteral obstruction (UUO) model; experiment: UUO model of kidney fibrosis: kidney collagen 1A1 and collagen 3A1 expression by real-time PCR; type: in vivo, mice; conditions: for Collagen 1A1 (Normalized Expression), individual animal / Collagen 3A1 (Normalized Expression), individual animal: 20 mg/kg
In short: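 Fibrosis induced by unilateral ureter ligation, groups of 8; anti-miR-21 compounds dosed at 20 mg/kg around surgery (days −3, −1, +5 or −5, −3, +3; repeat study subcutaneous at −5, −2, +3). Kidneys taken on day 10 or 11; Col1A1 and Col3A1 mRNA measured by real-time PCR, normalized to GAPDH and, in one study, also to sham.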

[2] = Ex vivo liver homogenate stability assay (HPLC-TOF MS); conditions: 5 μM in liver homogenate (50 mg tissue per ml), 24 hours at 37° C.
miR-21 = miR-21 luciferase sensor assay in Hela cells; type: cell-based
[3] = UUO comparison study, 25070 20 mg/kg s.c. at days -5, -2, +3, irbesartan PO daily days 0-7, sacrifice Day 10
[4] = UUO, 20 mg/kg at days -3, -1, +5 (prophylactic), kidney at day 11, real-time PCR normalized to GAPDH then sham
[5] = meta-analysis of repeated UUO studies, 20 mg/kg at days -3, -1, +5, kidney at day 11
[6] = repeat UUO study, 20 mg/kg SC, prophylactic

Sequence: AECSATCSAGTCSTGAUSAAGCSTAE (ACATCAGTCTGATAAGCTA; modified nucleosides coded in name, code key not given here) [Compound 25070]
- Collagen 1A1 (Normalized Expression), individual animal [1, 3]: 87.5 and 67.4 and 22.2 and 61.9 and 42.0 and 69.2 and 68.4 and 95.2
- Collagen 3A1 (Normalized Expression), individual animal [1, 3]: 38.6 and 56.9 and 77.2 and 50.7 and 76.4 and 49.7 and 44.3 and 35.9
- reduction in Col3a1 expression (in words) ([1]; UUO comparison with irbesartan, 25070 s.c. 20 mg/kg days -5, -2, +3, irbesartan perorally daily days 0-7, day 10): statistically significant reductions
- reduction in Col1A1 expression relative to saline-treated animals (in words) ([1]; UUO comparison with irbesartan, 25070 s.c. 20 mg/kg days -5, -2, +3, irbesartan perorally daily days 0-7, day 10, p<0.05 one-way ANOVA): statistically significant reduction
- Collagen 1A1 (Normalized Expression), Mean ([1]; UUO, 20 mg/kg at days -3, -1, +5 (prophylactic), kidney at day 11, group mean): 81.0
- Collagen 1A1 (Normalized Expression), individual animal [1, 4]: 67.7 and 97.7 and 88.8 and 95.9 and 71.4 and 44.5 and 73.0 and 109.4
- Collagen 3A1 (Normalized Expression), individual animal [1, 4]: 36.4 and 75.6 and 47.3 and 55.5 and 63.3 and 28.5 and 64.2 and 72.9
- inhibition of collagen 1A1 expression [1, 5]: 40%
- inhibition of collagen 3A1 expression [1, 5]: 30%
- Collagen 1A1 (Normalized Expression), individual animal [1, 6]: 13.9 and 9.2 and 32.3 and 57.2 and 47.6 and 26.1 and 35.0 and 20.4
- Collagen 3A1 (Normalized Expression), individual animal [1, 6]: 34.9 and 47.4 and 25.3 and 38.0 and 47.9 and 54.3 and 56.1 and 35.2
- inhibition of collagen 1A1 and collagen 3A1 expression (in words) ([1]; repeated UUO study, subcutaneously 20 mg/kg, prophylactic): potent inhibitor of collagen 1A1 and collagen 3A1 expression
- compound lacking the 3'-terminal nucleoside [2]: about 27%
- compound present as the full-length compound [2]: about 58%
- luciferase value normalized to beta-galactosidase activity (miR-21; 4 nM oligonucleotide, Hela cells, mock transfection 50): 99
- luciferase value normalized to beta-galactosidase activity (miR-21; .16 nM oligonucleotide, Hela cells, mock transfection 45): 65
- luciferase value normalized to beta-galactosidase activity (miR-21; .8 nM oligonucleotide, Hela cells, mock transfection 33): 87
- inhibition of miR-21 in the luciferase assay (in words) (miR-21; Hela cells): demonstrated inhibition of miR-21 in a dose-dependent manner; also recorded: potent inhibitor of miR-21 activity
- fold change in luciferase value relative to the mock treatment (miR-21; concentration of anti-miR compound 0.2 (unit not given)): 1.04
- fold change in luciferase value relative to the mock treatment (miR-21; concentration of anti-miR compound 0.6 (unit not given)): 1.01
- fold change in luciferase value relative to the mock treatment (miR-21; concentration of anti-miR compound 1.9 (unit not given)): 1.14
- fold change in luciferase value relative to the mock treatment (miR-21; concentration of anti-miR compound 5.6 (unit not given)): 6.22
- fold change in luciferase value relative to the mock treatment (miR-21; concentration of anti-miR compound 16.7 (unit not given)): 11.28
- fold change in luciferase value relative to the mock treatment (miR-21; concentration of anti-miR compound 50.0 (unit not given)): 11.00
